Target: Squalene synthase (Candida albicans)
Test: Compound was tested for in vitro inhibitory activity against Candida albicans 2005E microsomal SQS

Structure (SMILES)	IC50
CC(CC[C@]12O[C@H](C(=O)O)[C@@](O)(C(=O)O)[C@](C(=O)O)(O1)[C@H](O)[C@H]2O)C[C@@H](C)Cc1ccccc1 (stereo partly drawn) [(1S,3S,4S,5R,6R,7R)-1-((R)-3,5-Dimethyl-6-phenyl-hexyl)-4,6,7-trihydroxy-2,8-dioxa-bicyclo[3.2.1]octane-3,4,5-tricarboxylic acid]	200 nM
CC[C@H](C)C[C@H](C)CCC(=O)O[C@@H]1[C@@H](O)[C@@]2(CCC(C)[C@H](OC(C)=O)[C@@H](C)Cc3ccccc3)O[C@H](C(=O)O)[C@@](O)(C(=O)O)[C@]1(C(=O)O)O2 (stereo partly drawn) [(1S,3S,4S,5R,6R,7R)-1-((4S,5S)-4-Acetoxy-3,5-dimethyl-6-phenyl-hexyl)-6-((4R,6S)-4,6-dimethyl-octanoyloxy)-4,7-dihydroxy-2,8-dioxa-bicyclo[3.2.1]octane-3,4,5-tricarboxylic acid]	7 nM

From BindingDB's records for doi:10.1021/jm00046a011 (Glaxo Research and Development, 1994)
